Source: patent publication US20220096364A1, “Oral Care Compositions Comprising Prenylated Flavonoid” (The Procter & Gamble Company, priority 2020, published 2022)
Converted amounts (≈) assume the structure as drawn.

Key:
[1] = tested on: Streptococcus mutans (ATCC strain 25175); assay: Minimum inhibitory concentration (MIC) against Streptococcus mutans, 2-fold serial dilution in broth, visual scoring; type: cell-based; conditions: S. mutans ATCC 25175, TSB, overnight at 35° C., anaerobic chamber; for MIC: Streptococcus mutans, ATCC25175
Experimental: (§1) The minimum inhibitory concentration (MIC) values against Streptococcus mutans for a collection of prenylated flavonoids of varying octanol/water partition coefficients (Log P) were determined using a conventional protocol. A culture of Streptococcus mutans (S. mutans, ATCC strain 25175) was grown overnight (18-24 hour incubation time at 35° C.) in a Tryptone Soy Broth (TSB. BD, Becton, Dickinson and Company, Sparks, Md., USA) and adjusted to deliver a target count of between 2×10^7 and 2×10^8 CFU/mL using a turbidimetric target density at 600 nm. The inoculum was then diluted 1/1000 in TSB for S. mutans. A volume of 100 μL of inoculum was added to a row of wells (12 wells per row) of a 96-well plate for which the MIC value of a test compound would be determined. An additional 95 μL of inoculum was added to the first well in that row. For each compounded tested obtained as a pure isolate in DMSO (Phytolab GmbH, Germany), 5 μL of a stock solution (2 mg compound/mL DMSO) was also added to the first well in that row. Then, a 2-fold serial dilution was performed where 100 μL of the first well was transferred to the second well in a row and mixed with 100 μL of growth medium. This was repeated until the last well of a row was reached. In the last well, 100 μL was discarded such that all wells contained 100 μL. The plates were covered and incubated overnight at 35° C. in an anaerobic chamber (85/10/5; N2, CO2, H2) without agitation. The procedure was repeated row by row until each compound was serially diluted. Multiple plates were used if necessary. […] The MIC value was determined for each compounded tested in a row by identifying the well with the lowest concentration of test compound in the serial dilution necessary to maintain a clear well.

[2] = tested on: Porphyromonas gingivalis (ATCC strain 33277); assay: Minimum inhibitory concentration (MIC) against Porphyromonas gingivalis, 2-fold serial dilution in Minimal Medium+, visual scoring; type: cell-based; conditions: P. gingivalis ATCC 33277, Minimal Medium+, overnight at 35° C., anaerobic chamber; for MIC: Porphyromonas gingivalis, ATCC33277
Experimental: The minimum inhibitory concentration (MIC) values against Porphyromonas gingivalis for a collection of prenylated flavonoids of varying octanol/water partition coefficients (Log P) were determined using a conventional protocol. A culture of Porphyromonas gingivalis (P. gingivalis, ATCC strain 33277) from glycerol stock was grown with a gas mix of 85% nitrogen, 10% CO2, and 5% hydrogen for 48-72 hours at 33° C. by inoculating a large loopful in MTGE (Anaerobe Systems, Morgan Hill, Calif., USA). Following incubation in MTGE, the optical density was adjusted to deliver a target count of between 2×10^7 and 2×10^8 CFU/mL using a turbidimetric target density at 600 nm using P. gingivalis Minimal Medium+. Minimal Medium+ is a growth medium containing 10 mM monosodium phosphate, 10 mM potassium chloride, 10 mM magnesium chloride, 7.7 μM hemin, 2.9 μM menadione, 30 g/L alphaglobuline from bovine blood, 250 μM calcium chloride, 100 mL/L fetal bovine serum, adjusted to pH 7.0 with NaOH. It is made by mixing alphaglobuline in water, adding salts, adjusting to pH 7.0 with NaOH, filtering using […] filter, then adding hemin, menadione, and fetal bovine serum.
as §1, with “The” for “The minimum inhibitory concentration (MIC) values against Streptococcus mutans for a collection of prenylated flavonoids of varying octanol/water partition coefficients (Log P) were determined using a conventional protocol. A culture of Streptococcus mutans (S. mutans, ATCC strain 25175) was grown overnight (18-24 hour incubation time at 35° C.) in a Tryptone Soy Broth (TSB. BD, Becton, Dickinson and Company, Sparks, Md., USA) and adjusted to deliver a target count of between 2×10^7 and 2×10^8 CFU/mL using a turbidimetric target density at 600 nm. The”, “1/50” for “1/1000”, “Minimal Medium+” for “TSB”, “P. gingivalis.” for “S. mutans.”

SMILES | MIC [1] | MIC [2] | MIC (S. mutans) [1] | MIC (P. gingivalis) [2]
CC(C)=CCc1c(O)cc2c(c1O)C(=O)C[C@@H](c1ccc(O)cc1)O2 [6-Prenylnaringenin] | 15.6 µg/mL (≈ 45.9 µM) | 25 µg/mL (≈ 73.4 µM) |  | 
CC(C)=CCc1cc([C@@H]2CC(=O)c3ccc(O)c(CC=C(C)C)c3O2)cc(CC=C(C)C)c1O [(−)-Sophoranone] |  |  | 125 ppm | 50 ppm
CC(C)=CCc1cc(C(=O)/C=C/c2ccc(O)cc2)c(O)cc1O [Bavachalcone] |  |  | 3.125 ppm | 12.5 ppm
CC(C)=CCc1cc2c(cc1O)O[C@H](c1ccc(O)cc1)CC2=O [Bavachin] | > 500 µg/mL | 31.2 µg/mL (≈ 96.3 µM) |  | 
CC(C)=CCC/C(C)=C/Cc1cc(-c2coc3cc(O)ccc3c2=O)ccc1O [Corylifol A] |  |  | >500 ppm | 15.625 ppm
COc1ccc(-c2oc3c(CC=C(C)C)c(O[C@@H]4O[C@H](CO)[C@@H](O)[C@H](O)[C@H]4O)cc(O)c3c(=O)c2O[C@@H]2O[C@@H](C)[C@H](O)[C@@H](O)[C@H]2O)cc1 [Icariin] | > 500 µg/mL | 50 µg/mL (≈ 73.9 µM) |  | 
COc1cc(O)c(CC=C(C)C)c2c1C(=O)CC(c1ccc(O)cc1)O2 (stereo not shown) [Isoxanthohumol] | 50 µg/mL (≈ 141 µM) | 25 µg/mL (≈ 70.5 µM) |  | 
CC(C)=CCc1cc(-c2coc3cc(O)ccc3c2=O)ccc1O [Neobavaisoflavone] | 12.5 µg/mL (≈ 38.8 µM) | 31.2 µg/mL (≈ 96.9 µM) |  | 
COc1cc(O)c(C(=O)[C@@H]2[C@H](CC=C(C)C)C(C)=CC[C@H]2c2ccccc2)c(O)c1 [Panduratin A] |  |  | 0.7813 ppm | 0.488 ppm
C=C(C)[C@H](CC=C(C)C)Cc1c(O)cc(O)c2c1O[C@H](c1ccc(O)cc1O)CC2=O [Sophoraflavanone G] |  |  | 1.5625 ppm | 12.5 ppm
COc1cc(O)c(CC=C(C)C)c(O)c1C(=O)/C=C/c1ccc(O)cc1 [Xanthohumol] | 3.12 µg/mL (≈ 8.82 µM) | 12.5 µg/mL (≈ 35.3 µM) |  | 

More lines, now with the values ahead:

MIC [1] | MIC [2] | MIC (S. mutans) [1] | MIC (P. gingivalis) [2] | SMILES
12.5 µg/mL (≈ 36.7 µM) | 50 µg/mL (≈ 147 µM) |  |  | CC(C)=CCc1c(O)cc(O)c2c1O[C@H](c1ccc(O)cc1)CC2=O [8-Prenylnaringenin]
> 500 µg/mL | > 500 µg/mL |  |  | COc1ccc(-c2oc3c(CC=C(C)C)c(O)cc(O)c3c(=O)c2O)cc1 [Icaritin]
1.56 µg/mL (≈ 4.82 µM) | 12.5 µg/mL (≈ 38.5 µM) |  |  | CC(C)=CCc1c(O)ccc(C(=O)/C=C/c2ccc(O)cc2)c1O [Isobavachalcone]
3.91 µg/mL (≈ 8.91 µM) | 15.6 µg/mL (≈ 35.6 µM) |  |  | C=C(C)[C@H](CC=C(C)C)Cc1c(O)cc(OC)c2c1O[C@H](c1ccc(O)cc1O)CC2=O [Kurarinone]
 |  | 0.9766 ppm | 7.8125 ppm | CC(C)=CCc1c(-c2ccc(O)cc2O)oc2c(CC=C(C)C)c(O)cc(O)c2c1=O [Kuwanon C]
 |  | 3.125 ppm | 125 ppm | CC(C)=CCc1c(-c2ccc(O)cc2O)oc2c([C@H]3C=C(C)C[C@@H](c4ccc(O)cc4O)[C@@H]3C(=O)c3ccc(O)cc3O)c(O)cc(O)c2c1=O [Kuwanon G]
